This note sets out measurements from patent US20170204102A1, “AGRICULTURAL AGENT CONTAINING 2,5-DIKETOPIPERAZINE DERIVATIVE AS ACTIVE INGREDIENT” (NAPRO BIOTEC INC., priority 2010, published 2017).

In series [1] the test system is Pectobacterium carotovorum SCC1. As to the kind of experiment: Inhibition of soft rot lesion in cucumber leaf. Format: in vivo.
The test system of series [2] is Colletotrichum orbiculare. Format: in vivo. The note with it: cucumber; for Number of anthractic lesions in first leaf: control 12.5; for Number of anthractic lesions in second leaf: control 96.8.
For series [3], the system named is cucumber leaf. As to the kind of experiment: Promotion of growth of cucumber leaf. The note with it: for Width of leaf: relative values with respect to the control group (89.9 mm) = 100.0; for response vs control in vivo at 1 ppm / response vs control in vivo at 10 ppm / response vs control in vivo at 100 ppm: Cucumis sativus, read-out: Width of leaf.
Experimental: Plant leaves were tested with test compounds by drenching. […] 3-5 days later, the width of the leaves was measured again to compare the growth of the leaves relative to the control group.
The test system of series [4] is Pectobacterium carotovorum SCC1. Briefly: Inhibition of soft rot lesion in tobacco leaf. Format: in vivo.
The subject of series [5] is Colletotrichum acutatum. As to the kind of experiment: Inhibition of anthracnose in red pepper fruit after soil drench. The note with it: for Appearance of anthracnose: control 50.
Setting [6] is: 100 ppm, Table 5, control 73.75.

Read-outs that look alike come from different tables or passages of the source.

Regarding “3-(indol-3-ylmethyl)hexahydropyrrolo[1,2-a]pyrazin-1,4-dione [Compound No. 30]”, the Area of lesion in series [1] (1 ppm, Table 7, control 100) amounted to 88%; in series [1] (10 ppm, Table 7, control 100), 75%; in series [1] (100 ppm, Table 7, control 100) it was 70%; in series [4] (1 ppm, Table 4, control 100), 2.5%; in series [4] (10 ppm, Table 4, control 100), 7.5%; in series [4] (100 ppm, Table 4, control 100), 2.5%. Also, the “Number of anthractic lesions in first leaf” value amounted to 2.5 in series [2] (0.1 ppm), 3.0 in series [2] (1 ppm), 7.0 in series [2] (10 ppm) and 7.8 in series [2] (100 ppm). The “Number of anthractic lesions in second leaf” value in series [2] (0.1 ppm) turned out to be 66.8; in series [2] (1 ppm) it was 39.0; in series [2] (10 ppm), 35.3; in series [2] (100 ppm) it was 55.3. Also, the Width of leaf in series [3] (1.0 ppm) is 101.6; in series [3] (10 ppm), 123.5; in series [3] (100 ppm), 119.5. Further, the Appearance of anthracnose in series [5] (1 ppm), in series [5] (10 ppm) and in series [5] (100 ppm) was 0% throughout. Moreover, in series [5] (Table 10, FIG. 9), the “Appearance of anthracnose / anthractic lesion (in words)” value was “hardly observed”.

For `CC(C)CC1NC(=O)C(CO)NC1=O` (stereo not drawn) [Compound No. 1, 3-hydroxymethyl-6-(2-methylpropyl)-2,5-diketopiperazine], the Area of lesion is given as 95% in series [1] (1 ppm, Table 6, control 100); 77.5% in series [1] (10 ppm, Table 6, control 100); 50% in series [1] (100 ppm, Table 6, control 100); 10% in series [4] (1 ppm, Table 3, control 87.5); 32.5% in series [4] (10 ppm, Table 3, control 87.5); 50% in series [4] (100 ppm, Table 3, control 87.5).

`CC(C)CC1NC(=O)C(C(C)O)NC1=O` (stereo not drawn) [Compound No. 3, 3-(1-hydroxyethyl)-6-(2-methylpropyl)-2,5-diketopiperazine]: the Area of lesion was 45% in series [1] (1 ppm, Table 6, control 100); 45% in series [1] (10 ppm, Table 6, control 100); 42.5% in series [1] (100 ppm, Table 6, control 100); 20% in series [4] (1 ppm, Table 3, control 87.5); 10% in series [4] (10 ppm, Table 3, control 87.5); 0% in series [4] (100 ppm, Table 3, control 87.5).

Regarding `CC(C)C1NC(=O)CNC1=O` (stereo not drawn) [Compound No. 4, 3-isopropyl-2,5-diketopiperazine], the Area of lesion in series [1] (1 ppm, Table 6, control 100) is listed as 37.5%; in series [1] (10 ppm, Table 6, control 100), 45%; in series [1] (100 ppm, Table 6, control 100) it was 87.5%; in series [4] (1 ppm, Table 3, control 87.5) it was 17.5%; in series [4] (10 ppm, Table 3, control 87.5), 52.5%; in series [4] (100 ppm, Table 3, control 87.5), 52.5%.

Turning to `O=C1CNC(=O)C(Cc2c[nH]c3ccccc23)N1` (stereo not drawn) [Compound No. 5, 3-(indol-3-ylmethyl)-2,5-diketopiperazine], the melting point was 280 to 284 °C (dec.). Moreover, the Area of lesion in series [4] (1 ppm, Table 3, control 87.5) was 2.5%. The compound further came in with an Area of lesion in series [4] (10 ppm, Table 3, control 87.5) of 5%. Further, the Area of lesion in series [4] (100 ppm, Table 3, control 87.5) is listed as 40%.

Turning to `CCCC1NC(=O)C(C)NC1=O` (stereo not drawn) [Compound No. 9, 3-methyl-6-(2-methylethyl)-2,5-diketopiperazine], the melting point is 220 to 222 °C (dec.).

For `CC1NC(=O)C(Cc2ccc(O)cc2)NC1=O` (stereo not drawn) [Compound No. 10, 3-methyl-6-(4-hydroxybenzyl)-2,5-diketopiperazine], the melting point was 276 to 280 °C (dec.).

Turning to `O=C1NC(Cc2ccc(O)cc2)C(=O)N2CCCC12` (stereo not drawn) [Compound No. 23, 3-(4-hydroxybenzyl)hexahydropyrrolo[1,2-a]pyrazin-1,4-dione], in series [3], the response vs control in vivo at 1 ppm amounted to 97.8%, the response vs control in vivo at 10 ppm worked out at 114% and the response vs control in vivo at 100 ppm was 110%.

Regarding `O=C1NC(Cc2ccccc2)C(=O)N2CCCC12` (stereo not drawn) [Compound No. 24, 3-benzylhexahydropyrrolo[1,2-a]pyrazin-1,4-dione], in series [3], the response vs control in vivo at 1 ppm amounted to 98.2%, the response vs control in vivo at 10 ppm was found to be 104% and the response vs control in vivo at 100 ppm was found to be 102%.

Regarding `CC(C)CC1NC(=O)C2CCCN2C1=O` (stereo not drawn) [Compound No. 27, 3-(2-methylpropyl)hexahydropyrrolo[1,2-a]pyrazin-1,4-dione], in series [3], the response vs control in vivo at 1 ppm is 111%, the response vs control in vivo at 10 ppm turned out to be 135% and the response vs control in vivo at 100 ppm is 129%.

As for `O=C1C2CCCN2C(=O)C2CCCN12` (stereo not drawn) [Compound No. 31, octahydropyrrolo[1,2-a:1′,2′-d]pyrazin-5,10-dione], the Area of lesion in series [1] (1 ppm, Table 7, control 100) turned out to be 95%; in series [1] (10 ppm, Table 7, control 100) it was 78%; in series [1] (100 ppm, Table 7, control 100), 80%; in series [4] (1 ppm, Table 4, control 100) it was 47.5%; in series [4] (10 ppm, Table 4, control 100), 60%; in series [4] (100 ppm, Table 4, control 100), 17.5%. In addition, the figures for the Width of leaf in series [3] (1.0 ppm), in series [3] (10 ppm) and in series [3] (100 ppm) were 104.2, 103.2 and 102.8, respectively. Further, the Appearance of anthracnose in series [5] (1 ppm) was found to be 25%; in series [5] (10 ppm) it was 25%; in series [5] (100 ppm) it was 0%.

Consider `O=C1NC(CO)C(=O)N2CCCC12` (stereo not drawn) [Compound No. 32, 3-hydroxymethylhexahydropyrrolo[1,2-a]pyrazin-1,4-dione], for which, in series [3], the response vs control in vivo at 1 ppm turned out to be 98.7%, the response vs control in vivo at 10 ppm turned out to be 124% and the response vs control in vivo at 100 ppm is 112%.

Turning to `CC(O)C1NC(=O)C2CCCN2C1=O` (stereo not drawn) [Compound No. 33, 3-(1-hydroxyethyl)hexahydropyrrolo[1,2-a]pyrazin-1,4-dione], in series [3], the response vs control in vivo at 1 ppm was 109%, the response vs control in vivo at 10 ppm worked out at 117% and the response vs control in vivo at 100 ppm worked out at 110%.

Turning to `CC(O)C1NC(=O)C2CCCN2C1=O` (stereo not drawn) [Compound No. 56], the Area of lesion turned out to be 5% in series [1] (1 ppm, Table 8, control 100); 80% in series [1] (10 ppm, Table 8, control 100); 70% in series [1] (100 ppm, Table 8, control 100); 7.5% in series [4] (1 ppm, Table 5, control 73.75); 10% in series [4] (10 ppm, Table 5, control 73.75); 10% in series [4] (setting [6]).

On to `CSCC[C@H]1NC(=O)[C@@H]2CCCN2C1=O` [Compound No. 57], for which the Area of lesion in series [1] (1 ppm, Table 8, control 100) came out at 70%; in series [1] (10 ppm, Table 8, control 100) it was 72.5%; in series [1] (100 ppm, Table 8, control 100), 60%; in series [4] (1 ppm, Table 5, control 73.75), 10%; in series [4] (10 ppm, Table 5, control 73.75), 10%; in series [4] (setting [6]), 12.5%.

`O=C1N[C@H](Cc2ccccc2)C(=O)N2CCC[C@@H]12` [Compound No. 58]: the Area of lesion in series [1] (1 ppm, Table 8, control 100) was 75%; in series [1] (10 ppm, Table 8, control 100), 57.5%; in series [1] (100 ppm, Table 8, control 100), 80%; in series [4] (1 ppm, Table 5, control 73.75), 35%; in series [4] (10 ppm, Table 5, control 73.75), 25%; in series [4] (setting [6]), 7.5%.

For the compound `NC(=O)CC[C@H]1NC(=O)[C@@H]2CCCN2C1=O` [Compound No. 59], the Area of lesion is 30% in series [1] (1 ppm, Table 8, control 100); 32.5% in series [1] (10 ppm, Table 8, control 100); 80% in series [1] (100 ppm, Table 8, control 100); 12.5% in series [4] (1 ppm, Table 5, control 73.75); 32.5% in series [4] (10 ppm, Table 5, control 73.75); 47.5% in series [4] (setting [6]).

As to `CCC(C)C1NC(=O)C2CCCN2C1=O` (stereo not drawn) [Compound No. 60], the Area of lesion in series [1] (1 ppm, Table 8, control 100) is listed as 50%; in series [1] (10 ppm, Table 8, control 100), 60%; in series [1] (100 ppm, Table 8, control 100), 27.5%; in series [4] (1 ppm, Table 5, control 73.75), 33.7%; in series [4] (10 ppm, Table 5, control 73.75) it was 25%; in series [4] (setting [6]) it was 7.5%.

With `CC(C)C[C@H]1NC(=O)[C@H]2CCCN2C1=O` [Compound No. 61], the Area of lesion amounted to 5% in series [1] (1 ppm, Table 8, control 100); 70% in series [1] (10 ppm, Table 8, control 100); 75% in series [1] (100 ppm, Table 8, control 100); 10% in series [4] (1 ppm, Table 5, control 73.75); 10% in series [4] (10 ppm, Table 5, control 73.75); 17.5% in series [4] (setting [6]).

On to `O=C1N[C@H](Cc2ccccc2)C(=O)N2CCC[C@H]12` [Compound No. 63], for which the Area of lesion was determined as 82.5% in series [1] (1 ppm, Table 8, control 100); 42.5% in series [1] (10 ppm, Table 8, control 100); 50% in series [1] (100 ppm, Table 8, control 100); 15% in series [4] (1 ppm, Table 5, control 73.75); 22.5% in series [4] (10 ppm, Table 5, control 73.75); 65% in series [4] (setting [6]).

In the case of `O=C1N[C@H](Cc2ccc(O)cc2)C(=O)N2CCC[C@H]12` [Compound No. 64], the Area of lesion in series [1] (1 ppm, Table 8, control 100) was 50%; in series [1] (10 ppm, Table 8, control 100), 55%; in series [1] (100 ppm, Table 8, control 100), 65%; in series [4] (1 ppm, Table 5, control 73.75), 55%; in series [4] (10 ppm, Table 5, control 73.75) it was 37.5%; in series [4] (setting [6]), 60%.

With `CSCC[C@H]1NC(=O)[C@H]2CCCN2C1=O` [Compound No. 65], the Area of lesion in series [4] (1 ppm, Table 5, control 73.75) is reported as 60%; in series [4] (10 ppm, Table 5, control 73.75) it was 57.5%; in series [4] (setting [6]) it was 52.5%.

`CC(O)C1NC(=O)C2CCCN2C1=O` (stereo not drawn) [Compound No. 66]: the Area of lesion turned out to be 35% in series [4] (1 ppm, Table 5, control 73.75); 37.5% in series [4] (10 ppm, Table 5, control 73.75); 37.5% in series [4] (setting [6]).

As to `CCC(C)C1NC(=O)C2CCCN2C1=O` (stereo not drawn) [Compound No. 67], the Area of lesion in series [4] (1 ppm, Table 5, control 73.75) is 25%; in series [4] (10 ppm, Table 5, control 73.75), 35%; in series [4] (setting [6]), 40%.

Take `NC(=O)CC1NC(=O)C2CCCN2C1=O` (stereo not drawn) [Compound No. 68, 3-carbamoylmethylhexahydropyrrolo[1,2-a]pyrazin-1,4-dione]: the Area of lesion is recorded as 10% in series [4] (1 ppm, Table 5, control 73.75); 7.5% in series [4] (10 ppm, Table 5, control 73.75); 30% in series [4] (setting [6]).
